For series [1], the system named is Cellulolytic Enzyme Composition #1. Description: mini-plate-scale AVICEL hydrolysis by Cellulolytic Enzyme Composition #1. The format is biochemical, Trichoderma reesei. The settings on record: for Effect on hydrolysis (in words) / Effect on enzymatic cellulolysis: gain in initial rate / Effect on enzymatic cellulolysis: gain in extended hydrolysis extent / Effect on enzymatic cellulolysis: loss in initial rate / Effect on enzymatic cellulolysis: loss in extended hydrolysis extent: 10 mM; for Effect on enzymatic cellulolysis: gain in initial rate / Effect on enzymatic cellulolysis: gain in extended hydrolysis extent / Effect on enzymatic cellulolysis: loss in initial rate / Effect on enzymatic cellulolysis: loss in extended hydrolysis extent: 25 g AVICEL and 0.25 g enzyme per liter, pH 5, 50° C.; for Effect on enzymatic cellulolysis: gain in extended hydrolysis extent / Effect on enzymatic cellulolysis: loss in extended hydrolysis extent: after 4 days; for IC50: AVICEL hydrolysis, 0.2 to 2 mM inhibitor. Here is the method: (§1) Various (biologically common) divalent metal cations with variable ionic radii were tested in 2.8 ml Deep Well Microplates (VWR International, West Chester, Pa., USA) (“mini-plate-scale”) containing 1 ml suspensions of 25 g of AVICEL® per liter in 50 mM sodium acetate pH 5 at 50° C. Cellulolytic Enzyme Composition #1 was added at 0.25 g per liter for each hydrolysis. The mini-plates were sealed at 160° C. for 2 seconds using an ABGENE® ALPS 300™ sealer (ABgene, Rochester, N.Y., USA). The sealed mini-plates were incubated at 50° C. in an INNOVA® 4080 incubator shaker at 150 rpm. Soluble reducing sugars were measured by HPLC as described in Example 30.
Iron-chelator complexes of variable size or redox property were tested for their ability to inhibit enzymatic hydrolysis of cellulose. […]

The conditions of series [2]: cited from earlier work; for Radius: ionic radii in crystals, 6-ligand coordination.
For series [3], the system named is Cellulolytic Enzyme Composition #1. The series can be described thus: Pre-incubation of iron ion with AVICEL or enzyme, then AVICEL hydrolysis. The format is biochemical, Trichoderma reesei. As for the experimental part: To test whether Fe(II) affects cellulose or cellulase, 10 mM FeCl2 was pre-incubated with either 25 g of AVICEL® or 0.25 g of Cellulolytic Enzyme Composition #1 per liter of 50 mM sodium acetate pH 5 for three days. “Fe-pretreated” AVICEL® was washed and Cellulolytic Enzyme Composition #1 was gel-filtered using BioSpin 6 desalting columns (Bio-Rad, Hercules, Calif., USA) to remove residual Fe ion. Fe-pretreated AVICEL® was hydrolyzed with fresh Cellulolytic Enzyme Composition #1 or Cellulolytic Enzyme Composition #1 subjected to “FeCl2-less” pre-incubation and gel filtration. Fe-pretreated Cellulolytic Enzyme Composition #1 was applied to hydrolyze fresh AVICEL® or AVICEL® subjected to “FeCl2-less” pre-incubation and washing, in comparison with the hydrolysis of fresh AVICEL® ([…]) by fresh Cellulolytic Enzyme Composition #1 ([…]), with or without 10 mM FeCl2. All hydrolyses were performed using the “mini-plate-scale” hydrolysis reaction procedure described in Example 32, except for the change in cellulose or cellulase described above.
To test whether Fe(III) affected cellulose or cellulase, 10 mM FeCl3 was pre-incubated with either 25 g of AVICEL® or 0.25 g of Cellulolytic Enzyme Composition #1 per liter of 50 mM sodium acetate pH 5 for three days. All hydrolyses were performed using the “mini-plate-scale” hydrolysis reactions according to the procedure described in Example 32, except for the change in cellulose or cellulase described above.

Series [4] shares this test system. Description: mini-plate-scale PASC hydrolysis by Cellulolytic Enzyme Composition #1. The format is biochemical, Trichoderma reesei. The settings on record: 10 mM; 2 g PASC and 0.01 g enzyme per liter. As for the experimental part: as §1
In one series of “mini-scale” hydrolysis reactions performed according to the procedure described in Example 30, the effect of 1 mM to 10 mM FeSO4 was evaluated in the hydrolysis of AVICEL® by Cellulolytic Enzyme Composition #1. In a series of “mini-plate-scale” hydrolysis reactions performed according to the procedure described in Example 32, the effect of 1 mM to 10 mM FeSO4 was evaluated in the hydrolysis of PASC by Cellulolytic Enzyme Composition #1, except 2 g of PASC and 0.05 g Cellulolytic Enzyme Composition #1 per liter of 50 mM sodium acetate pH 5 were used.
The above study was extended to a range of concentration of Fe(II) and cellulose. In a series of “mini-plate-scale” hydrolysis reactions performed according to the procedure described in Example 32, except that 0.1 to 10 mM FeSO4, 0.6 to 4 g of PASC and 0.01 g of Cellulolytic Enzyme Composition #1 per liter of 50 mM sodium acetate pH 5 were used.

Series [5] has the same test system. The series can be described thus: Pre-incubation of iron ion with PASC or enzyme, then PASC hydrolysis. The format is biochemical, Trichoderma reesei. Here is the method: The “pre-incubation” study was also performed for the hydrolysis of PASC. The experiments were similar to those described above, except 2 g of PASC, replacing AVICEL®, and 0.01 g of Cellulolytic Enzyme Composition #1 per liter of 50 mM sodium acetate pH 5, and 3 days pre-incubation were used. All hydrolyses were performed using the “mini-plate-scale” hydrolysis reaction according to the procedure described in Example 32, except for the change in cellulose or cellulase described above.

Setting [6] is: single-electron redox potential vs NHE.
Setting [7] is: read-out: I50 estimated based on limited data.
Setting [8] is: single-electron oxidation potential of iron-chelator complexes.
Where [9] appears, read: 10 mM fresh salt, fresh AVICEL, fresh enzyme.
[10] abbreviates: 10 mM, pre-incubated three days with AVICEL.
[11] abbreviates: 10 mM, pre-incubated three days with Cellulolytic Enzyme Composition #1.
The mark [12] stands for this setting: fresh salt, PASC, enzyme fresh or buffer pre-incubated.
Setting [13] is: pre-incubated 3 days with Cellulolytic Enzyme Composition #1.

Read-outs that look alike come from different tables or passages of the source. Some results are limits rather than exact numbers.

Take `[Ca+2].[Cl-].[Cl-]` [Ca(II), CaCl2]: in series [1], the “Effect on hydrolysis (in words)” value is recorded as “slight enhancement”; the “Effect on enzymatic cellulolysis: gain in initial rate” value is given as ~20% gain in initial rate, ~20% gain in extended hydrolysis extent; the “Effect on enzymatic cellulolysis: gain in extended hydrolysis extent” value was ~20% gain in initial rate, ~20% gain in extended hydrolysis extent. Besides, in series [2], the Radius was 1.00 Å. The “E°” value in series [2] (setting [6]) is recorded as −0.96 V.
Turning to `O=S(=O)([O-])[O-].[Co+2]` [Co(II), CoSO4], in series [1], the “Effect on hydrolysis (in words)” value was “slight or moderate inhibition”, the “Effect on enzymatic cellulolysis: loss in initial rate” value (from here on “Effect … loss in initial rate”) is given as approximately 10% and the “Effect on enzymatic cellulolysis: loss in extended hydrolysis extent” value (from here on “Effect … loss in extended hydrolysis extent”) is “no change”. Also, the “E°” value in series [2] (2-electron E° (in parenthesis)) is on record as “(−0.28) V”. In addition, in series [2], the Radius was 0.65 Å.
As for `[Cl][Cr]([Cl])[Cl]` [Cr(III), CrCl3], in series [1], the “Effect on hydrolysis (in words)” value is “moderate”; the “Effect … loss in initial rate” value was ~40% loss in initial rate, ~40% loss in extended hydrolysis extent; the “Effect … loss in extended hydrolysis extent” value is recorded as ~40% loss in initial rate, ~40% loss in extended hydrolysis extent. Also, the IC50 in series [1] (setting [7]) is more than 10000 µM. The Radius in series [2] was 0.62 Å. Besides, the “E°” value in series [2] (setting [6]) is −0.407 V.
Take `O=S(=O)([O-])[O-].[Cu+2]` [Cu(II), CuSO4]: in series [1], the “Effect … loss in initial rate” value was approximately 90% and the “Effect … loss in extended hydrolysis extent” value was approximately 80%. Moreover, the IC50 in series [1] (read-out: I50) was 200 µM. Further, in series [2], the Radius is recorded as 0.73 Å. The “E°” value in series [2] (setting [6]) is given as 0.153 V.
With `O=C([O-])CN(CCN(CC(=O)[O-])CC(=O)[O-])CC(=O)[O-].[Fe+2].[Na+].[Na+]` [Fe(II)Na2EDTA, FeNa2EDTA], in series [1], the “Effect … loss in initial rate” value is given as ~80% loss in initial rate, ~80% loss in extended hydrolysis extent and the “Effect … loss in extended hydrolysis extent” value was ~80% loss in initial rate, ~80% loss in extended hydrolysis extent. In addition, the IC50 in series [1] (setting [7]) was less than 10000 µM. In series [2] (setting [8]), the “E°” value was “(=Fe(III)NaEDTA's)”.
For the molecule `[Cl][Fe]([Cl])[Cl]` [Fe(III), FeCl3], the “Effect … loss in initial rate” value in series [1] is given as ~90% loss in initial rate, ~90% loss in extended hydrolysis extent; in series [1] (listed as FeCl3), approximately 90%. In addition, the “Effect … loss in extended hydrolysis extent” value was ~90% loss in initial rate, ~90% loss in extended hydrolysis extent in series [1] and approximately 90% in series [1] (listed as FeCl3). In addition, the IC50 in series [1] (read-out: I50) came out at 500 ± 400 µM. Also, the “loss in extent of hydrolysis” value is approximately 90% in series [3] (setting [9]); approximately 80% in series [3] (setting [10]); approximately 20% in series [3] (setting [11]); “approximately 30%” in series [5] (setting [12]); “no loss” in series [5] (setting [13]); approximately 10% in series [5] (pre-incubated 3 days with PASC). For the same molecule, the “loss in initial rate” value in series [3] (setting [9]) is recorded as approximately 90%; in series [3] (setting [10]), approximately 80%; in series [3] (setting [11]) it was approximately 20%; in series [5] (setting [12]), approximately 70%; in series [5] (setting [13]) it was approximately 50%; in series [5] (pre-incubated 3 days with PASC), approximately 50%. Moreover, in series [2], the Radius was 0.55 Å. Further, the “E°” value in series [2] (setting [6]) is 0.771 V. In addition, the “loss of extent of hydrolysis after 4 days” value in series [4] is approximately 80%. For the same molecule, the “loss of initial hydrolysis rate” value in series [4] was approximately 80%.
`O=C([O-])CN(CCN(CC(=O)[O-])CC(=O)[O-])CC(=O)[O-].[Fe+3].[Na+]` [Fe(III)NaEDTA, FeNa(EDTA)]: in series [1], the “Effect … loss in initial rate” value is reported as approximately 10% and the “Effect … loss in extended hydrolysis extent” value is recorded as approximately 20%. In addition, the IC50 in series [1] (setting [7]) was approximately 10000 µM. The “E°” value in series [2] (setting [8]) is listed as 0.13^2 V.
As to `[Cl-].[Cl-].[Mg+2]` [Mg(II), MgCl2], in series [1], the “Effect on hydrolysis (in words)” value is “slight enhancement”; the “Effect on enzymatic cellulolysis: gain in initial rate” value is reported as ~20% gain in initial rate, ~20% gain in extended hydrolysis extent; the “Effect on enzymatic cellulolysis: gain in extended hydrolysis extent” value is ~20% gain in initial rate, ~20% gain in extended hydrolysis extent. For the same molecule, in series [2], the Radius is reported as 0.72 Å. Moreover, the “E°” value in series [2] (setting [6]) is reported as −0.33 V.
For the molecule `O=S(=O)([O-])[O-].[Mn+2]` [Mn(II), MnSO4], in series [1], the “Effect on hydrolysis (in words)” value is given as “slight or moderate inhibition”, the “Effect … loss in initial rate” value is on record as approximately 10% and the “Effect … loss in extended hydrolysis extent” value was “no change”. In series [1] (0.1 to 10 mM), the “Effect on hydrolysis over concentration range” value was “no effect”. In series [2] (2-electron E° (in parenthesis)), the “E°” value is reported as “(−1.185) V”. Also, the Radius in series [2] is reported as 0.67 Å.
Regarding `[Cl][Ni][Cl]` [Ni(II), NiCl2], in series [1], the “Effect on hydrolysis (in words)” value is given as “slight or moderate inhibition”, the “Effect … loss in initial rate” value is listed as approximately 20% and the “Effect … loss in extended hydrolysis extent” value is approximately 10%. The Radius in series [2] is 0.69 Å. Besides, in series [2] (setting [6]), the “E°” value is −1.56 V.
For the molecule `[Cl][Ru]([Cl])[Cl]` [Ru(III), RuCl3], in series [1], the “Effect on hydrolysis (in words)” value is given as “pronounced”, the “Effect … loss in initial rate” value was approximately 90% and the “Effect … loss in extended hydrolysis extent” value was approximately 80%. Besides, the IC50 in series [1] (read-out: I50) was 150 µM. Besides, the Radius in series [2] is reported as 0.68 Å. In addition, the “E°” value in series [2] (setting [6]) is 0.249 V.
For `O=S(=O)([O-])[O-].[Zn+2]` [Zn(II), ZnSO4], in series [1], the “Effect on hydrolysis (in words)” value is listed as “slight or moderate inhibition”; the “Effect … loss in initial rate” value is ~20% loss in initial rate, ~20% loss in extended hydrolysis extent; the “Effect … loss in extended hydrolysis extent” value is ~20% loss in initial rate, ~20% loss in extended hydrolysis extent. The Radius in series [2] is given as 0.74 Å. Further, in series [2] (setting [6]), the “E°” value was −2.3 V.
Regarding “Fe(2,2′-bipyridyl)3Cl2 [Fe(II)(2,2′BP)2Cl2]”, in series [1], the “Effect … loss in initial rate” value is ~40% loss in initial rate, ~40% loss in extended hydrolysis extent and the “Effect … loss in extended hydrolysis extent” value is on record as ~40% loss in initial rate, ~40% loss in extended hydrolysis extent. Further, the IC50 in series [1] (read-out: I50) stood at 20000 µM.
Turning to “Fe(2,2′-bipyridyl)3Cl3 [Fe(III)(2,2′BP)2Cl3]”, in series [1], the “Effect … loss in initial rate” value is ~100% loss in initial rate, ~100% loss in extended hydrolysis extent and the “Effect … loss in extended hydrolysis extent” value is ~100% loss in initial rate, ~100% loss in extended hydrolysis extent. Further, the IC50 in series [1] (read-out: I50) amounted to 600 ± 100 µM. For the same molecule, the “E°” value in series [2] (setting [8]) is recorded as 0.78 V.
quinone [reference compound]: the IC50 in series [1] (setting [7]) was approximately 5000 µM.

Values taken from US20090130707A1, “Methods of reducing the inhibitory effect of a redox active metal ion on the enzymatic hydrolysis of cellulosic material” (priority 2007, published 2009).
